8 molecules from US11130733B2, “4-OXO-alkylated tetramic acid compound, preparation method and use thereof” (BEIJING JOEKAI BIOTECH. LLC, priority 2017, dated 2021) can be followed below.

The test system of data set [1] is Salmonella typhimurium TA98. Nature of the data set: Mini Ames experiment, strain TA98. The data set is classed as cell-based. On the procedure:
(§1) Histidine auxotrophic strains of Salmonella typhimurium were cultured in a special medium with quite a low content of histidine. The strains were difficult to divide due to lack of nutrition. If a test compound has mutagenicity, a large number of cells will undergo reverse mutation, synthesizing histidine by themselves and developing into colonies visible to the naked eye. In view of the close relationship between mutagenicity and carcinogenesis of chemicals, this method has been widely used in screening carcinogens. Some chemicals need metabolic activation to induce mutagenicity. Mammalian microsomal enzyme S9 can be added into the test system to eliminate the influence of metabolic activation on generation of mutagenicity.
(§2) […] Mini Ames test with compound 50561

Data set [2] has as its system Salmonella typhimurium TA100. The data set can be described thus: Mini Ames experiment, strain TA100. Type of data set: cell-based. Here is the method:
as §1, §2

The subject of data set [3] is Drosophilae containing and expressing human Abeta42 gene. The data set can be described thus: Pavlov's olfactory-related instantaneous memory test in Drosophila. Type of data set: in vivo. The following applies: FIG. 3; with increase of dosage; compared with positive compound memantine hydrochloride.
The test system is the same in data set [4]. The data set is described as above. Type of data set: in vivo. The following applies: test medicament 100 μM, 50 μL per 100 drosophilae, 7 consecutive days; FIG. 1 and FIG. 2. The source says: Drosophila has a classical learning and memory paradigm, known as Pavlov's olfactory-related instantaneous memory. During the training program, a group of about 100 drosophilae were exposed sequentially to two odors, i.e., 3-octanol and 4-methylcyclohexanol, each odor for 60 seconds, and to fresh air for 45 seconds therebetween. During exposure to the first odor, the drosophilae were electrocuted on their feet (1.5-second pulses at 3.5-second intervals, 60V), while no electrocution was exerted during exposure to the second odor. In order to detect “instantaneous memory” (also known as “learning”), drosophilae were transferred to the selection area in the T maze immediately after training and forced to choose between the two odors. The drosophilae in each T-maze arm were then captured, anesthetized, and counted. The behavior index was calculated from the distribution of drosophilae in the T maze. […] In each experiment, the age of the control group was matched with that of the experimental group.
Pharmacodynamic evaluation of the candidate compounds: Drosophilae containing and expressing human Abeta42 gene were selected as a diseased control, and drosophilae containing but not expressing human Abeta42 gene were selected as a healthy control. The day after emergence of the drosophilae, male drosophilae were selected and fed. Starting from the third day, drosophilae were fed with a test medicament (100 μM, 50 μL per 100 drosophilae) for 7 consecutive days, 4 hours each day. The above memory test was performed on the drosophilae on the tenth day.

Setting [5] is: TA98, With Metabolic Activation, control article 0.4 μg per well.
[6] abbreviates: TA100, With Metabolic Activation, control article 0.4 μg per well.
Where [7] appears, read: TA98, Without Metabolic Activation, control article 2.0 μg per well.
Where [8] appears, read: TA100, Without Metabolic Activation, control article 0.2 μg per well.

`Nc1ccc2cc3ccccc3cc2c1` [Compound 2-AA, reference compound]: in data set [1] (setting [5]), the “Mean Revertants Per Well” value is reported as 297.67 and the “Ratio Treated/Solvent” value is recorded as 35.72. In data set [2] (setting [6]), the “Mean Revertants Per Well” value was determined as 317.67 and the “Ratio Treated/Solvent” value is on record as 9.72.
Take `O=[N+]([O-])c1ccc2c(c1)Cc1ccccc1-2` [Compound 2-NF, reference compound]: in data set [1] (setting [7]), the “Mean Revertants Per Well” value is 421.00 and the “Ratio Treated/Solvent” value is given as 61.61.
As to `O=C1C=C(OCc2ccccc2F)[C@H](Cc2ccccc2)N1` [Compound 51121], the “dose-effect relationship to improve memory of drosophilae” value (“dose-effect relationship” below) in data set [3] is recorded as “eventually reaches or exceeds the level of the activity of the positive compound memantine hydrochloride”. The “ability to improve the learning and memory of drosophilae” value (“ability” below) in data set [4] was “best ability to improve the learning and memory of drosophilae”.
Consider `O=C1C=C(OCc2cccs2)[C@H](Cc2ccccc2)N1` [Compound 51151], for which the “dose-effect relationship” value in data set [3] is “eventually reaches or exceeds the level of the activity of the positive compound memantine hydrochloride”. In addition, the “ability” value in data set [4] was “best ability to improve the learning and memory of drosophilae”.
For `O=C1C=C(OCc2cccc3ccccc23)[C@H](Cc2ccccc2)N1` [Compound 51311], the “dose-effect relationship” value in data set [3] is reported as “eventually reaches or exceeds the level of the activity of the positive compound memantine hydrochloride”. Besides, the “ability” value in data set [4] is “best ability to improve the learning and memory of drosophilae”.
Turning to `CC(=O)Oc1ccc(COC2=CC(=O)N[C@H]2Cc2ccccc2)cc1` [Compound 51351], the “dose-effect relationship” value in data set [3] is given as “eventually reaches or exceeds the level of the activity of the positive compound memantine hydrochloride”. The “ability” value in data set [4] is “best ability to improve the learning and memory of drosophilae”.
On to `COc1ccc(C[C@@H]2NC(=O)C=C2OCc2ccc(OC(C)=O)cc2)cc1` [Compound 60111], for which the “ability” value in data set [4] was “quite a good ability to improve learning and memory of drosophilae”.
Take `[N-]=[N+]=[N-].[Na+]` [SA, reference compound]: in data set [2] (setting [8]), the “Mean Revertants Per Well” value was 195.33 and the “Ratio Treated/Solvent” value came out at 7.92.
